Assay results taken from US20130253015A1, “Cyclodextrin-Based Microemulsions, and Dermatological Uses Thereof” (PRECISION DERMATOLOGY, INC., priority 2012, published 2013).

Legend:
[1] = Solubility/dispersibility of retinol in Labrasol-HPGCD-water microemulsion systems; type: physicochemical
Text: Drug used: 1. Solid Retinol (98%) from Sigma, 2.
Cyclodextrin used: hydroxypropyl-X-cyclodextrin (X=alpha, beta, or gamma).

[2] = cited from earlier work

Structure (SMILES): CC1=C(/C=C/C(C)=C/C=C/C(C)=C/CO)C(C)(C)CCC1 [solid retinol, Retinol]
- amount of retinol that can be incorporated into cyclodextrin-based microemulsions ([1]; cyclodextrin-based microemulsions of the invention): greater than 1.0 wt %
- miscibility in Labrasol-HPGCD-water microemulsion system ([1]; final retinol concentration 1.2%, clear transparent system (FIG. 4(b), 4(c))): complete miscibility
- miscibility in water [2]: immiscible in water
